Reference: patent publication US20260008818A1, “CYCLIC PEPTIDE OR SALT THEREOF, AND USES THEREOF” (FUJIFILM Corporation, priority 2023, published 2026)
Numbered stars: 1 amine (or outer) side, 2 acyl side, 3 side chain; on linkers, the order of the positions; unused ones are H or OH. Bridge positions count the residues as written; N and C are the ends. Square brackets hold non-standard residues; d marks the D form. Ends that are not written are not given here. I, II: the chains in the order shown. ξ: configuration not given here. ξY = NC(Cc1ccc(O)cc1)C(=O)O; ξR = N=C(N)NCCCC(N)C(=O)O; Dap = NC[C@H](N)C(=O)O; X1 = O=C(C[*:1])[*:2]; ξK = NCCCCC(N)C(=O)O; ξP = O=C(O)C1CCCN1; ξC = NC(CS)C(=O)O

What was measured:
[1] = test system: hMSC-Human Mesenchymal Stem Cells; experiment: Effect of maintaining MSC undifferentiated potency (gene expression); type: cell-based; conditions: cyclic peptide complex 3 nmol/L or bFGF 1 nmol/L, normalized to 1 nmol/L bFGF = 1, bFGF compared with negative control
Experimental: The effect of maintaining mesenchymal stem cell (MSC) undifferentiated potency of the cyclic peptide complex was evaluated.
MSC was prepared in the same manner as in Example 7.
The evaluation of the effect of maintaining the MSC undifferentiated potency was performed by the following method. First, a culture medium (hereinafter, referred to as a custom culture medium) in which bFGF was removed from PRIME-XV MSC Expansion XSFM (FUJIFILM Irvine Scientific, Inc., 91149) was prepared. Next, Prime-XV Human Fibronectin (FUJIFILM Irvine Scientific, Inc., 31002) was dissolved in PBS (Fujifilm Wako Pure Chemical Corporation, 164-23551), 2 μg/cm^2 of the solution was added to a 12-well plate used for proliferation, and the 12-well plate was allowed to stand at room temperature for 3 hours to coat the 12-well plate with fibronectin. Thereafter, the MSCs subjected to the subculture were peeled using Tryple Express (Thermo, 12604-013), washed once with a custom culture medium, suspended in a custom culture medium in which a cyclic peptide complex or bFGF (R&D Systems, 3718-GMP) was diluted to final concentrations of 3 nmol/L and 1 nmol/L, and seeded on a 12-well plate coated with fibronectin. In this case, conditions in which the cyclic peptide complex and bFGF were not added as a negative control were prepared. After culturing at 37° C. (5% CO2) for 2 nights, the culture medium was replaced by removing the supernatant of the culture medium and adding the same amount of a culture medium prepared to have the same composition as the removed culture medium. After further culturing at 37° C. (5% CO2) for 2 nights, RNA was extracted using an RNeasy Plus Mini Kit (Qiagen, 74136) according to the manufacturer's protocol. […] The expression level of each gene was normalized by setting the expression level of the well to which 1 nmol/L bFGF was added to 1.

[2] = test system: hMSC-Human Mesenchymal Stem Cells; experiment: Mesenchymal stem cell (MSC) proliferation-promoting effect; type: cell-based; conditions: 0.001 to 3 nmol/L, bFGF-free custom culture medium; viable cells normalized to 1 nmol/L bFGF = 100, negative control = 0
Experimental: The mesenchymal stem cell (MSC) proliferation-promoting effect of the cyclic peptide complex was evaluated.
The MSC was activated and subcultured according to the recommended protocol of FUJIFILM Irvine Scientific, Inc. using hMSC-Human Mesenchymal Stem Cells (Lonza, PT-2501) and PRIME-XV MSC Expansion XSFM (FUJIFILM Irvine Scientific, Inc., 91149) as a culture medium. MSCs that had been subcultured 1 to 4 times were used for the evaluation.
The evaluation of the proliferation-promoting effect of MSC was performed by the following method. First, a culture medium (hereinafter, referred to as a custom culture medium) in which bFGF was removed from PRIME-XV MSC Expansion XSFM (FUJIFILM Irvine Scientific, Inc., 91149) was prepared. Next, Prime-XV Human Fibronectin (FUJIFILM Irvine Scientific, Inc., 31002) was dissolved in PBS (Fujifilm Wako Pure Chemical Corporation, 164-23551), 2 μg/cm^2 of the solution was added to a 96-well plate used for evaluation, and the 96-well plate was allowed to stand at room temperature for 3 hours to coat the 96-well plate with fibronectin. […] The number of viable cells was calculated from the imaging data and normalized by setting the number of viable cells in the well to which 1 nmol/L bFGF was added to 100, and setting the number of viable cells in the negative control well to 0.

[3] = test system: bovine myoblasts; experiment: Bovine cell (myoblast) proliferation-promoting effect; type: cell-based, Japanese Black cattle; conditions: 0.03 to 10 nmol/L, 4 days; viable cells normalized to 30 ng/mL bFGF = 100, negative control = 0
Experimental: The bovine cells (myoblasts) proliferation-promoting effect of the cyclic peptide complex was evaluated.
Bovine myoblasts were separated from bovine muscle tissue by the following method. First, muscle tissue of Japanese Black cattle was finely chopped in HBSS (−) (phenol red-free) (FUJIFILM Wako Pure Chemical Corporation, 085-09355), and then pronase from Streptomyces griseus (Sigma-Aldrich, 10165921001) was added thereto to a final concentration of 1 mg/mL, and the mixture was allowed to stand at 37° C. for 1 hour. After allowing to stand, HBSS containing 10% FBS was added thereto, and the cells were acquired by centrifugation. The acquired cells were suspended in D-MEM (high glucose) (containing L-glutamine and phenol red) (FUJIFILM Wako Pure Chemical Corporation, 044-29765) containing 10% final concentration of bovine serum and 30 ng/mL bFGF. Suspended cells were cultured in a culture flask coated with an iMatrix-511 solution (FUJIFILM Wako Pure Chemical Corporation, 381-07363) at 0.55 μg/cm^2. […]
The evaluation of the proliferation-promoting effect on bovine myoblasts was performed by the following method. […] The number of viable cells was calculated from the imaging data and normalized by setting the number of viable cells in the well to which 30 ng/mL bFGF was added to 100, and setting the number of viable cells in the negative control well to 0.

With “I: H[ξC]SYERLEFHGHEAPFRV[ξK]V[Dap]-NH2 / II: HCS[ξY]E[ξR]LQFHGHEA[ξP]FRVK[dV] (linker I:2-I:19, II:2-II:19 via X1; amide I:21-II:C) [SEQ ID NO: 393, (H-(C)-SYERLQFHGHEAPFRV-(K(acetyl))-V)2-Dap]” the “expression level of Sox2” value [1] was “the same degree of a gene expression level as bFGF”, the MSC proliferation action [2] was “the same degree of MSC proliferation action as bFGF” and the “bovine myoblast proliferation action” value [3] was “about 80%”.
